Assay results published in patent publication US20260048051A1, “TREATMENT OF INFLAMMATORY BOWEL DISEASE” (Atomwise Inc., priority 2024, published 2026).

Columns and labels:
[1] = biological target: T1, TYK2-JH2 (Homo sapiens, UniProt P29597); experiment: TYK2-JH2 HTRF binding assay (ligand efficiency); details: calculated from binding-assay IC50 (Equation 1)
T1 construct: TYK JH2 enzyme mix (ChemPartner: CP20210818A-BV); purchased ChemPartner CP20210818A-BV
Procedure, shortened: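 HTRF competition binding: 0.5 nM His-tagged TYK2 JH2 preincubated 10 min at room temperature with compound (final 0.1 to 0.000005 μM), then 35 nM tracer and anti-6HIS Tb cryptate added for 60 min. Buffer 20 mM HEPES pH 7.5, 10 mM MgCl2, 0.01% Triton X-100, 1 mM DTT; TR-FRET Ex340/Em495/520. Ligand efficiency derived from binding IC50.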

[2] = Brain exposure pharmacokinetics in mice; type: in vivo; details: male C57BL/6 mice, oral gavage 5 mg/kg
Description: The brain exposure of 18 was evaluated in male C57BL/6 mice after oral gavage administration at 5 mg/kg. The formulation was 10% DMSO+40% PEG400 in saline. Mice were provided free access to food and water without fasting. Terminal sample collection of plasma and brain tissue were collected at […], 0.25, 0.5, 1, 2, and 4 hours post-dose with n=3 at each timepoint.
For both rat and mouse studies, brain tissue was washed with 3 volumes of saline prior to homogenization. Brain tissue was homogenized with 3 volumes (v/w) of phosphate buffered saline. Plasma, brain homogenate, and CSF samples (rat only) were analyzed by LC-MS/MS and the concentration of test compound at each time point was determined by linear regression.
Pharmacokinetic parameters were calculated from the plasma, brain, and CSF concentrations by non-compartmental modeling using WinNonlin 8.2.

T1 sequence (P29597 589-875 limits assumed): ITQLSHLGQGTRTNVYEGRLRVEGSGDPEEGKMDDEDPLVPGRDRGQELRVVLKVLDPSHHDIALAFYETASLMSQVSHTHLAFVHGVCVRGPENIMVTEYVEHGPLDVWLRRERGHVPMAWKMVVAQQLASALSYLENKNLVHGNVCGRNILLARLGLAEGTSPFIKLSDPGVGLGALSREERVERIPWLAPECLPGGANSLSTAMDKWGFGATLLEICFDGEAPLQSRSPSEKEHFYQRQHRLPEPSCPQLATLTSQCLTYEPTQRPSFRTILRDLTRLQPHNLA

Cc1cccc(Nc2cc(Nc3ncccc3S(C)(=O)=O)ncn2)n1 [Compound 18, N^4-(6-methylpyridin-2-yl)-N^6-(3-(methylsulfonyl)pyridin-2-yl) pyrimidine-4,6-diamine]
Ligand Efficiency [1]: ††† (†††: >0.39)
Brain Kpu, u [2]: ††† (††† >0.2 u)
